Here are results for nine molecules from article PMC11555526, “Development of 2-Aminoadenine-Based Proteolysis-Targeting Chimeras (PROTACs) as Novel Potent Degraders of Monopolar Spindle 1 and Aurora Kinases” (ACS Pharmacology & Translational Science, 2024).

For assay [1], the system named is AURKA. On the set-up: method as in PMID 32338514, PMID 27905678, PMID 27437075, PMID 30232224, PMID 27699881. Conditions: literature values, introduction and Figure 1; cited from earlier work.
The test system of assay [2] is AURKB. On the set-up: method as in PMID 32338514, PMID 27905678, PMID 27437075, PMID 30232224, PMID 27699881. The settings on record: literature values, introduction and Figure 1; cited from earlier work.
A further assay has as its system human TTK. Also noted: method as in PMID 23940287, PMID 32338514, PMID 27905678, PMID 27437075, PMID 30232224. The settings on record: literature values, introduction and Figure 1; cited from earlier work.
Assay [3] has as its target T1, TTK (MV4-11^HiBiT-TTK cells) (Homo sapiens, UniProt P33981).
T1 construct: expressed in transfected cells; host or cells: MV4-11, lentiviral transduction (pRRL-PGK-HiBiT entry vector)
T1 sequence (P33981 1-857): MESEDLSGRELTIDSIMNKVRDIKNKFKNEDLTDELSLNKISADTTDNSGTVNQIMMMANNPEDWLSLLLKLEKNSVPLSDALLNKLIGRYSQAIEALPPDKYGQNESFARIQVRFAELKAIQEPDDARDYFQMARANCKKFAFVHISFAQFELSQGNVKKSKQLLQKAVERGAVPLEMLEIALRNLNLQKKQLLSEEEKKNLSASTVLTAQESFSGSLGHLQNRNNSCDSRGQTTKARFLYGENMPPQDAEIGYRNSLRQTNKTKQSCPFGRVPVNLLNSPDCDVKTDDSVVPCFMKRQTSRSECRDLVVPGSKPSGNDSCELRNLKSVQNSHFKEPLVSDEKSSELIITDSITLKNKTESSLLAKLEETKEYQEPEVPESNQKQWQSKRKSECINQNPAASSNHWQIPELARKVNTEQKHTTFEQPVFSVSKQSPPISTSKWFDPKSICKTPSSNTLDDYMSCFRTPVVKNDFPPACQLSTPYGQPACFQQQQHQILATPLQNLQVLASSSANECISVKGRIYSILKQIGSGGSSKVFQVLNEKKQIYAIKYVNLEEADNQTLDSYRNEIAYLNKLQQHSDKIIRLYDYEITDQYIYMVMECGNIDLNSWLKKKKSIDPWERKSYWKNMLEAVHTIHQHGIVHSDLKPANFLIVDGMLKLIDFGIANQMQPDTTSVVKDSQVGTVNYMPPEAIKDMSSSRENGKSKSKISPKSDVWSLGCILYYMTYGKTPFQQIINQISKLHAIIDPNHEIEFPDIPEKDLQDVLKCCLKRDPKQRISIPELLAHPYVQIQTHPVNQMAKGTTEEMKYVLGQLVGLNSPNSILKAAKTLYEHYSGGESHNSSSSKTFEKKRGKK
In words: HiBiT assay, TTK degradation. The class given is cell-based. Also noted: key to Dmax (maximal degradation) TTK: compounds with degradation less than 15% reported as “inactive”. The settings on record: 6 h treatment, MV4-11^HiBiT-TTK cells. The method, boiled down:
(§1)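 MV4-11 lines stably expressing HiBiT-tagged AURKA, AURKB or TTK (lentiviral) were treated with serial compound dilutions for the indicated times. Remaining tagged protein was read by lytic HiBiT luminescence, and DC50 was fitted with a four-parameter dose–response equation using concentrations showing sigmoidal behaviour.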
For orientation: HiBiT is a short tag that completes a luciferase, so light tracks the accessible tagged protein.

For assay [4], the target named is T2, AURKA (MV4-11^AURKA-HiBiT cells) (Homo sapiens, UniProt O14965).
T2 construct: expressed in transfected cells; host or cells: MV4-11, lentiviral transduction
T2 sequence (O14965 1-403): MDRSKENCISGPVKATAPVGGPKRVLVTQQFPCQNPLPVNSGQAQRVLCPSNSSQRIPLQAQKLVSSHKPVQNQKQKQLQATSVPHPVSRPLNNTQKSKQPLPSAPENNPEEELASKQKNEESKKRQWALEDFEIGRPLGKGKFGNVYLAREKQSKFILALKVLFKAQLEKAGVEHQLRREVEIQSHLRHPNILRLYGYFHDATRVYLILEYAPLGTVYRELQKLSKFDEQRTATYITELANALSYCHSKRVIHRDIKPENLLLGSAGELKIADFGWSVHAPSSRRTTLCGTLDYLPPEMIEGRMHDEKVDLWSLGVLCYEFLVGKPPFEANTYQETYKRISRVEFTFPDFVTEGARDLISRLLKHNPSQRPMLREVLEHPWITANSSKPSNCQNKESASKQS
The assay is described as follows: HiBiT assay, AURKA degradation. The class given is cell-based. Conditions: 6 h treatment, MV4-11^AURKA-HiBiT cells. The procedure, abridged:
as §1

Assay [5] addresses T3, AURKB (MV4-11^AURKB-HiBiT cells) (Homo sapiens, UniProt Q96GD4).
T3 construct: expressed in transfected cells; host or cells: MV4-11, lentiviral transduction (pRRL-PGK vector)
In words: HiBiT assay, AURKB degradation. The settings on record: 6 h treatment. Type of assay: cell-based. The method, boiled down:
as §1

The test system of the next assay is MV4-11 cells (naive). The assay is described as follows: alamarBlue cell viability assay. Type of assay: cell-based, human. Conditions: 72 h treatment, MV4-11 cells (naive). The method, boiled down:
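Cells exposed to compound concentration series or vehicle for 72 h (unless otherwise stated); alamarBlue added a few hours before end point. Read-out by fluorescence (ex 550/em 600 nm) or absorbance (570 nm, 600 nm reference).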
In general terms: Alamar Blue is a resazurin reagent that responds to reducing activity.

The target in assay [6] is T4, AURKB (Homo sapiens, UniProt Q96GD4).
T4 construct: endogenous in cells; host or cells: naive MV4-11
In words: Immunoblot of AURKB in naive MV4-11 cells. The class given is cell-based. Conditions: 6 h, 0.1 µM. The method, then: The cells were treated with compounds or vehicle for indicated time points and lysed in RIPA lysis buffer (50 mM HEPES pH 7.9, 140 mM NaCl, 1 mM EDTA, 1% Triton X-100, 0.1% SDS, 0.1% sodium deoxycholate) containing protease and phosphatase inhibitors (Sigma) for 20 min at 4 °C. Cell lysates were cleared by centrifugation, and protein concentration was determined with bicinchoninic acid assay. Equal amounts of protein per sample were separated by Bis-Tris-PAGE and transferred to PVDF membranes (Millipore). The membranes were blocked with 5% (w/v) nonfat dry milk in TBS-T [20 mM Tris–HCl, pH 7.5, 150 mM NaCl, 0.1% (v/v) Tween-20] for 1 h at room temperature and incubated with primary antibody at 4 °C overnight. Visualization was carried out using horseradish peroxidase (HRP)-labeled secondary antibodies and detected using a chemiluminescent HRP substrate (Millipore) in LAS3000 or LAS4000 mini (Fujifilm). Vinculin, GAPDH, or B-actin were used as a loading control. The loading control was probed along with the target antibody by cutting the membrane. For targets with similar molecular weights, the samples were run in duplicate and probed with their respective loading controls, although only one control was shown in the figure for all targets. The signal was quantified using ImageJ or Image Studio Lite against the corresponding loading controls. Antibodies used in this study were as follows: Aurora A/AIK (Cell Signaling Technology, 3092), Aurora B (Bethyl Laboratories, A300–431A), TTK (Santa Cruz Biotechnology, sc-56968), GAPDH (Cell Signaling Technology, 2118), B-Actin (Sigma, A5441), and Vinculin (Sigma, V9131).
α GAPDH α Vinculin α B-Actin
Figure S2: Cellular degradation studies of SF1-based compounds. […]
Immunoblots of TTK and AURKB. Naive MV4-11 cells were treated with indicated concentration of 44 or 47 G)
(E), 18 (F), and 14 or 20 (G) for 6 h and compared with vehicle treated cells. […]
All HiBiT data are represented as a mean ±s.d. from n=2 replicates. […]
On the technique in general: In western blotting, separated proteins are transferred to a membrane and probed.

Assay [7] has as its system AURKA. The settings on record: reported PROTACs; cited from earlier work.
The next assay relates to TTK. Also noted: method as in PMID 35084180. The settings on record: reported PROTAC; cited from earlier work.
A further assay deals with AURKC. Conditions: read-out: AURKC IC50; literature value, introduction; cited from earlier work.

SMILES strings stand for the structures.

T3 sequence (Q96GD4 1-345 isoform Q96GD4-5): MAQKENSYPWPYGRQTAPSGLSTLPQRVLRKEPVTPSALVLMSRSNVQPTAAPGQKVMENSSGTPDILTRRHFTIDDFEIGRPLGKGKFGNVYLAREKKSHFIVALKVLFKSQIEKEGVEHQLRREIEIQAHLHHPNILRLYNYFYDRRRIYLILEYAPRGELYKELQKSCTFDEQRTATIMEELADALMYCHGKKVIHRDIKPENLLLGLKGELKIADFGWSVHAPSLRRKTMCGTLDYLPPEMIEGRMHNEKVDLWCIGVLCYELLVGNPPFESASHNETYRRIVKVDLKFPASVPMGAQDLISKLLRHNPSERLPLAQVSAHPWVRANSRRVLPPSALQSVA
T4 sequence (Q96GD4 whole entry): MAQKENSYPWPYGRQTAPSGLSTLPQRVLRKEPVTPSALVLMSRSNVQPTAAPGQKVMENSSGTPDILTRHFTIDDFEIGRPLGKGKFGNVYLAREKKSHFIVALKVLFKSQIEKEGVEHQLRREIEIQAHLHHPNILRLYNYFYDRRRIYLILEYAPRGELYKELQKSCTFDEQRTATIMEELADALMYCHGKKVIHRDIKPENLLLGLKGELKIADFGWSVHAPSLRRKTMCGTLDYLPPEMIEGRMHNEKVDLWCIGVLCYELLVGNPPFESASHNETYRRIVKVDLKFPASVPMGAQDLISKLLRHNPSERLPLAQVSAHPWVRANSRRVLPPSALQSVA

Usually IC50 stands for the concentration at which inhibition is half-maximal. As to `O=C(Nc1c[nH]nc1-c1nc2ccc(CN3CCOCC3)cc2[nH]1)NC1CC1` [AT9283], the IC50 with AURKA [1] and in the assay with AURKB [2] was 3 nM throughout.
In the case of `COc1cc(S(C)(=O)=O)ccc1Nc1nc2ccc(-c3ccc(NC(=O)[C@H](C)c4ccc(F)cc4)cc3)cn2n1` [BAY1161909], in the assay on human TTK, the IC50 is 1 nM.
On to `Cc1cc(-c2cnn3c(NC[C@H]4C[C@@](C)(O)C4)cc(Oc4cccnc4)nc23)ccc1C(=O)NC1CC1` [CFI-402257], for which, in the assay on human TTK, the IC50 is 1 nM.
Take `Cc1ncsc1-c1ccc(CNC(=O)[C@@H]2C[C@@H](O)CN2C(=O)[C@@H](NC(=O)CCC(=O)NCC(=O)N2CCN(c3ccc(Nc4nc(Nc5ccccc5S(=O)(=O)C(C)C)c5nc[nH]c5n4)cc3)CC2)C(C)(C)C)cc1` [Compound 47]: in [3], the “DC50 (half-maximal degradation concentration) TTK” value was “– (compounds with degradation less than 25% were not calculated and reported as “–”)”; the “Dmax (maximal degradation) TTK” value was “inactive”. For the same molecule, in assay [4], the “DC50 (half-maximal degradation concentration) AURKA” value was “– (compounds with degradation less than 25% were not calculated and reported as “–”)”; the “Dmax (maximal degradation) AURKA” value amounted to 21.70%. In addition, in assay [5], the “DC50 (half-maximal degradation concentration) AURKB” value was “– (compounds with degradation less than 25% were not calculated and reported as “–”)”; the “Dmax (maximal degradation) AURKB” value is 20.20%. The “EC50 (concentration that decreases cell viability by 50%)” value in the assay with MV4-11 cells (naive) was “— (compounds with decrease of cell viability less than 50% were not calculated and reported as “—”)”. In addition, at AURKB [6], the “relative AURKB level (immunoblot quantification, vehicle = 1.00)” value was 1.00.
On to `COc1cc(Nc2ncc3c(n2)-c2ccc(Cl)cc2C(c2c(F)cccc2OC)=NC3)ccc1C(=O)NCCOCCOCCNC(=O)COc1cccc2c1C(=O)N(C1CCC(=O)NC1=O)C2=O` (stereo not drawn) [JB170], for which the DC50 in the assay on AURKA [7] is 28 nM.
As for `O=C(COc1cccc2c1C(=O)N(C1CCC(=O)NC1=O)C2=O)NCCOCCOCCNC(=O)C1(Cc2cccc(Nc3nccs3)n2)CCC(Oc2cccc(Cl)c2F)CC1` (stereo not drawn) [JB300], in the assay with AURKA [7], the DC50 was 30 nM.
As to `CCC(=O)N[C@H]1CC[C@@H](n2c(=O)cc(C)c3cnc(Nc4ccc(N5CCN(C(=O)CCCC#Cc6ccc7c(c6)CN(C6CCC(=O)NC6=O)C7=O)CC5)cc4OC)nc32)CC1` (stereo partly drawn) [LJB-1113157], in the assay with TTK, the DC50 was 3.1 nM.
The term Dmax denotes the greatest extent of degradation seen. On to `COc1cc(N2CCC(O)CC2)ccc1Nc1nc(Nc2ccccc2S(=O)(=O)C(C)C)c2nc[nH]c2n1` [MPS1-IN-3, reference compound], for which the half-inhibitory concentration (IC50) in the assay on human TTK was 50 nM. In addition, in assay [3], the “DC50 (half-maximal degradation concentration) TTK” value was “– (compounds with degradation less than 25% were not calculated and reported as “–”)”. Also, the “Dmax (maximal degradation) TTK” value in assay [3] is “inactive”. The DC50 in assay [4] (read-out: DC50 (half-maximal degradation concentration) AURKA) was determined as 998 nM; in [5] (read-out: DC50 (half-maximal degradation concentration) AURKB), 3210 nM. For the same molecule, the Dmax in assay [4] (read-out: Dmax (maximal degradation) AURKA) came to 41.7%; in assay [5] (read-out: Dmax (maximal degradation) AURKB) it was 43.3%. Moreover, the EC50 in the assay with MV4-11 cells (naive) (Homo sapiens, read-out: EC50 (concentration that decreases cell viability by 50%)) is 1270 nM.
On to `c1nc2nc(Nc3ccc(N4CCOCC4)cc3)nc(NC3CCCCC3)c2[nH]1` [Reversine], for which the IC50 in the assay with AURKC was 400 nM.
